In patent publication US20190358198A1, “USE OF OVATODIOLIDE FOR PREPARING A COMPOSITION FOR INHIBITING PROTEIN SYNTHESIS OF GASTRIC HELICOBACTER PYPORI” (Syi Biotechnology Co.,Ltd., priority 2018, published 2019):
≈ marks a conversion by molar mass, not a printed value.

Assays:
[1] = test system: Hp reference strain 26695; assay: Minimum bactericidal concentration, serial dilution and spread plate method; type: cell-based, Helicobacter pylori; details: cultivated six hours; type strain 26695
Description: (§1) Different concentrations of ovatodiolide are prepared by using serial dilution method, and Helicobacter pylori type strain and multidrug-resistant gastric Helicobacter pylori (v633, v1354) separated from laboratory are cultivated for six hours respectively. Then, ovatodiolide is analyzed by using spread plate method to observe the number of colony growth, and analyze the minimum bactericidal concentrations of ovatodiolide for completely killing Helicobacter pylori type strain and multidrug-resistant strains. Based on the results on Table 2, the minimum bactericidal concentration of ovatodiolide for Helicobacter pylori type strain is 200 μM, and the minimum bactericidal concentrations for multidrug-resistant strains v633 and v1354 are 100 μM.

[2] = test system: Hp v633; assay: as above; type: cell-based, Helicobacter pylori; details: cultivated six hours; multidrug-resistant strain v633
Description: as §1

[3] = test system: Hp v1354; assay: as above; type: cell-based, Helicobacter pylori; details: cultivated six hours; multidrug-resistant strain v1354
Description: as §1

[4] = test system: extracts of Escherichia coli (E. coli S30); assay: In vitro transcription/translation system with pGL3 luciferase readout; type: biochemical; details: 10 μM; FIG. 1
Description: The structure of ovatodiolide is similar to that of the medicines in antibiotics for inhibiting protein generation. In order to understand whether the mechanism of ovatodiolide for inhibiting Helicobacter Pylori is related to protein synthesis, let ovatodiolide and extracts of Escherichia coli (E. coli S30) to take effect for 10 minutes by using in vitro transcription/translation systems. Then, pGL3 luciferase is added for carrying out transcription and translation reaction for 2 hours. Finally, the reacted sample is added with luciferin for it to present color by using Dual-Luciferase Reporter Assay System. Then, microplate luminometer is used to determine the […] in order to find out whether ovatodiolide can inhibit protein synthesis.
Among them, inhibition of 30S subunit using kanamycin and inhibition of […] using erythromycin are used as control groups.

[5] = test system: protein RpsB in 30S ribosomal subunit; assay: Western blot analysis of RpsB content in Helicobacter pylori lysates; type: cell-based; details: H. pylori cultivated with ovatodiolide of different concentrations for 6 hours; FIG. 2
Description: In this embodiment, the process of protein translation has three steps, namely, initiation, elongation and termination of ribosomes. In order to further analyze whether ovatodiolide is effected on ribosomes causing protein synthesis unable to proceed smoothly, western blot analysis is used to determine the content of protein RpsB in 30S ribosomal subunit. Helicobacter pylori is cultivated with ovatodiolide of different concentrations for 6 hours, and extract total cell lysates. Separate total cell lysates by using 10% SDS-PAGE, transfer protein using PVDF membrane, and carry out hybridization with protein using RpsB antibody. Then, detect RpsB antibody using anti-rabbit antibody; finally, a chromogenic reagent is added, and observe results by using the apparatus Azure C400 Biosystems.
FIG. 2 is an expression of 30S ribosomal subunits RpsB analyzed by using western blot analysis. Wherein kanamycin (400 μM) and erythromycin (400 μM) are used as control groups.

[6] = test system: Helicobacter pylori type strain (H. pylori 26695); assay: Minimum bacteriostatic concentration by agar-well diffusion (inhibitory rings); type: cell-based; details: for Inhibitory rings: cultivated two days
Description: Different concentrations of ovatodiolide disks are used to cultivate with Helicobacter pylori for two days respectively. Then, the minimum concentrations for inhibiting Helicobacter pylori are determined by using agar-well diffusion. The results are used for analyzing the minimum concentration of ovatodiolide for inhibiting the growth of Helicobacter pylori type strain (H. pylori 26695). […] Based on the experimental results, 10 μM and 20 μM of ovatodiolide have inhibitory rings; the diameters of the inhibitory rings are 10±0.5 mm and 19±0 mm respectively. This proves that the minimum bacteriostatic concentration of ovatodiolide for inhibiting Helicobacter pylori is 10 μM.

C=C1C(=O)O[C@@H]2/C=C(\C)C[C@H]3C=C(CC/C=C(\C)CC[C@@H]12)C(=O)O3 [ovatodiolide]
Minimum bactericidal concentration [1]: 200 µM (≈ 65.7 µg/mL) | Minimum bactericidal concentration [2]: 100 µM (≈ 32.8 µg/mL) | Minimum bactericidal concentration [3]: 100 µM (≈ 32.8 µg/mL) | inhibition of protein synthesis [4]: more than 50% | expression of protein RpsB [5]: reduces significantly | minimum bacteriostatic concentration ([6]; agar-well diffusion, H. pylori 26695): 10 µM | Inhibitory rings ([6]; ovatodiolide 10 μM): 10±0.5 mm | Inhibitory rings ([6]; ovatodiolide 20 μM): 19±0 mm
